Reference: BindingDB's records for doi:10.1021/jm100342z (Vernalis R&D, 2010)

Experiment: Binding affinity to Hsp70 nucleotide binding domain in human BT474 cells

N#Cc1ccc(COC[C@H]2O[C@@H](n3c(NCc4ccc(Cl)c(Cl)c4)nc4c(N)ncnc43)[C@H](O)[C@@H]2O)cc1 [adenosine-derived inhibitor (Grp78), 13]
IC50: 10.4 µM
